# Laboratory results as given in patent publication US6841236B2, “Articles containing thioxanthone dyes” (3M Innovative Properties Co., priority 2001, dated 2005).
# Experiments:
# Format in all cases: physicochemical
# [1] = Dye concentration in saturated acetone solution at room temperature; conditions: 72 hours at RT, 0.45 micron PTFE filtered, absorbance at 535 nm
# Protocol: Examples 4-7 were prepared by placing 60-100 mg of each of the compounds of Examples 1-3 and 6-methoxy-14H-anthra(2,1,9-mna)thioxanthene-14-one (described by Carlini et al.) in a vial with 5.0 ml acetone. […] Each vial was hand shaken and the solution was filtered using a 0.45 micron polytetrafluoroethylene (PTFE) filter commercially available from VWR Scientific Products, West Chester, Pa. under the trade designation “Acrodisc 13CR PTFE”.
# The amount of fluorescent dye in the saturated acetone solution was determined by measuring the major dye absorption band at 535 nm using a UV-Vis Spectrophotometer commercially available from Shimadzu Scientific Instruments, Inc., Columbia, Md. under the trade designation “Shimadzu model UV-2401PC”. Dye concentrations were calculated by measuring the absorbance of the saturated acetone solution, and then diluting that solution until absorbance of the resulting solution was below 3. The dyes were assumed to have equal absorbance per mole. Using the dilution and an absorbance coefficient of 16,100 A/mol/L (coefficient obtained in acetone for the dye of Example 3) and assuming a Beer's Law relationship, the concentration of dye in each saturated solution was calculated and is set out in TABLE I
# [2] = Daytime color and visual inspection of PMMA film with dye laminated to retroreflective sheeting
# Protocol: (§1) The daytime color of each article was measured using a Labsphere BFC-450 Bispectral Colorimeter commercially available from Labsphere, North Sutton, N.H. The daytime chromaticity (x,y), total luminance factor (YT), and fluorescence luminance factor (YF; which is a measure of the fluorescent properties of the article) calculated for the CIE D65 and the CIE 1931 observer are provided in TABLE II
# Examples 11-16 were prepared with the compounds of Examples 1-2 and 6-methoxy-14H-anthra(2,1,9-mna)thioxanthene-14-one in polymethylmethacrylate (PMMA) resin at the wt.-% of dye shown in TABLE III. The samples were prepared by dry blending the dye with a medium impact modified grade PMMA resin commercially available from Ineos Acrylics Inc., Cordova, Tenn. under the trade designation “CP923”. Films of 0.1 mm thickness were extruded through a single screw extruder with three heating zones set at 249° C. to 260° C. […] Examples 11 and 12 and Examples 13 and 14 had equal molar loadings of dye.
# The resultant films were laminated to Scotchlite 3970 reflective sheeting on aluminum panels as described in Examples 8-10. Color values were measured as described in Examples 8-10 and the results set out in TABLE III.
# [3] = Daytime color of polyurethane film with dye laminated to retroreflective sheeting; conditions: dye 0.2 wt.-% in aliphatic polyester polyurethane PN03.214, 0.1 mm film on Scotchlite 3970
# Protocol: as §1
# Examples 24-27 were prepared as described in Examples 8-10, except that the dyes of Examples 1, 3, 6-(2-hydroxy-ethoxy)-14H-anthra(2,1,9-mna)thioxanthene-14-one (described by Carlini et al.) and 6-methoxy-14H-anthra(2,1,9-mna)thioxanthene-14-one were independently used at 0.2 wt.-% loading in an aliphatic polyester polyurethane resin commercially available from Huntsman Polyurethanes, West Deptford, N.J., USA under the trade designation “PN03.214”. The extrusion conditions for the polyurethane were 154-191° C. and the resultant film thickness was 0.1 mm.
# The resultant films were laminated to Scotchlite 3970 reflective sheeting on aluminum panels as described in Examples 8-10. Color values were measured as described in Examples 8-10 and the results set out in TABLE VII.
# [4] = Daytime color of Paraloid B66 dye coating on retroreflective sheeting
# Protocol: as §1
# Examples 19-21 were prepared by independently stirring 0.10 parts of the dyes of Examples 1 and 3 and 6-methoxy-14H-anthra(2,1,9-mna)thioxanthene-14-one in a clear vehicle solution of 64.8 parts Dowanol DPMA and 38.2 parts Paraloid B66.
# The fluorescent dye solutions were coated on Scotchlite 3970 reflective sheeting using a #16 wire wound bar. The coating was air dried for 5 minutes and then dried in a 120° C. oven for 45 minutes. Color values were measured as described in Examples 8-10 and the results set out in TABLE V.
# [5] = Daytime color of polycarbonate sheet with dye laminated to retroreflective sheeting (Labsphere BFC-450 Bispectral Colorimeter); conditions: 0.2% dye in polycarbonate FCR-2407, 0.1 mm sheet on Scotchlite 3970; CIE D65, CIE 1931 observer
# Protocol: Examples 8-10 were prepared with the compounds of Examples 1 and 2 and 6-methoxy-14H-anthra(2,1,9-mna)thioxanthene-14-one at a 0.2% loading in polycarbonate FCR-2407. Extrusion conditions for the polycarbonate were 260-304° C. using a single screw extruder. Optically transparent pressure sensitive adhesive with a liner on both sides of the adhesive was laminated to the 0.1 mm thick sheet of polycarbonate by removing one of the liners from the adhesive and then applying the exposed adhesive to the polycarbonate sheet with two passes of a roller using hand pressure.
# The remaining liner was removed from the adhesive and the polycarbonate sheet construction was laminated to retroreflective sheeting commercially available from 3M under the trade designation “Scotchlite Diamond Grade LDP Reflective Sheeting Series 3970” (Scotchlite 3970) with two passes of a roller using hand pressure. The Scotchlite 3970 reflective sheeting had previously been laminated to a 7 cm wide by 28 cm long aluminum panel (6061T6 alloy with etch and desmut surface from Q Panel Company, Cleveland, Ohio) with two passes of a roller with hand pressure.
# as §1
# [6] = dye 0.2 wt-% in PMMA CP923, 0.1 mm film on Scotchlite 3970
# [7] = dye 0.38 wt-% in PMMA CP923, 0.1 mm film on Scotchlite 3970
# [8] = dye 1.27 wt-% in PMMA CP923, 0.1 mm film on Scotchlite 3970
# [9] = 0.10 parts dye in 64.8 parts Dowanol DPMA and 38.2 parts Paraloid B66, coated on Scotchlite 3970 with #16 wire wound bar, dried
compound,measurement,setting,value
"CCCCCCCCOc1cc2c3ccccc3c(=O)c3ccc4c5ccccc5sc1c4c32 [Example 1, 6-n-Octyloxy-14H-anthra(2,1,9mna)thioxanthene-14-one]",Dye Concentration in Acetone at RT,[1],0.19 mg/mL
same,fluorescence relative to articles with the 6-methoxy dye,"[2]; PMMA films, equal molar loadings of dye, by fluorescence luminance factor",higher fluorescence
same,X (daytime chromaticity),[2]; [6],0.5210
same,YF (fluorescence luminance factor),[2]; [6],16.83
same,YT (total luminance factor),[2]; [6],30.85
same,y (daytime chromaticity),[2]; [6],0.3252
same,X (daytime chromaticity),[2]; [7],0.5923
same,YF (fluorescence luminance factor),[2]; [7],13.74
same,YT (total luminance factor),[2]; [7],19.96
same,y (daytime chromaticity),[2]; [7],0.3022
same,X (daytime chromaticity),[2]; [8],0.6305
same,YF (fluorescence luminance factor),[2]; [8],4.97
same,YT (total luminance factor),[2]; [8],7.80
same,y (daytime chromaticity),[2]; [8],0.3008
same,visual inspection of film for undissolved dye,"[2]; extruded PMMA CP923 film 0.1 mm, 6-methoxy dye at 1 wt.-%, dyes of Examples 1-2 at up to 1.27 wt-%",uniform appearance with no undissolved dye seen
same,X (daytime chromaticity),[3],0.5739
same,YF (fluorescence luminance factor),[3],11.83
same,YT (total luminance factor),[3],17.46
same,y (daytime chromaticity),[3],0.2692
same,YF (fluorescence luminance factor),[4]; [9],11.09
same,YT (total luminance factor),[4]; [9],30.10
same,x (daytime chromaticity),[4]; [9],0.4381
same,y (daytime chromaticity),[4]; [9],0.2980
same,appearance of coated article,[4]; dye in Paraloid B66 coating on Scotchlite 3970,bright fluorescent pink appearance
same,YF (fluorescence luminance factor),[5],14.6
same,YT (total luminance factor),[5],32.87
same,x (daytime chromaticity),[5],0.5232
same,y (daytime chromaticity),[5],0.3132
